Results taken from patent publication US20080139664A1, “ANTI-GLYCATION AGENTS FOR PREVENTING AGE-, DIABETES-, AND SMOKING-RELATED COMPLICATIONS” (NATIONAL RESEARCH COUNCIL OF CANADA, priority 2001, published 2008).
Like-named read-outs stand apart in the source and are kept apart here.

Tests used:
[1] = tested on: lysozyme; assay: ESI-MS of lysozyme glycoforms after incubation with D-ribose; details: 37° C., 5 days; for Peak area as % of total area of all glycoforms, 14,569: lysozyme + 2D-ribose − 2H2O (14,569 Da); for Peak area as % of total area of all glycoforms, 14,551: lysozyme + 2D-ribose − 3H2O (14,551 Da); for Peak area as % of total area of all glycoforms, 14,533: lysozyme + 2D-ribose − 5H2O (14,533 Da); for Peak area as % of total area of all glycoforms, 14,515: lysozyme + 2D-ribose − 6H2O (14,515 Da); for Peak area as % of total area of all glycoforms, 14,419: lysozyme + D-ribose − 2H2O (14,419 Da); for Peak area as % of total area of all glycoforms, 14,401: lysozyme + D-ribose − 3H2O (14,401 Da); for Peak area as % of total area of all glycoforms, 14,437: lysozyme + D-ribose − H2O (14,437 Da); for Peak area as % of total area of all glycoforms, 14,496: lysozyme + D-ribose − H2O with one carboxymethylated Lys residue (14,496 Da); for Peak area as % of total area of all glycoforms, 14,364: lysozyme with one carboxymethylated Lys residue (14,364 Da); for Peak area as % of total area of all glycoforms, 14,305: unmodified lysozyme (14,305 Da);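 as to all read-outs here: lysozyme incubated with D-ribose, with or without anti-glycation agents, then separated by reversed-phase HPLC and analysed by electrospray mass spectrometry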
[2] = tested on: bovine serum albumin (BSA); assay: Fluorescamine assay of free primary amino groups of BSA incubated with D-ribose; format: biochemical; details: for Unreacted amino group: free primary amino group on BSA after 5 days at 37° C., agent at 16.8 times IC50, 64% without agent
Experimental: Fluorescamine assay (Yeboah F. et al., J. Agric. Food Chem. 48, 2766-2774 (2000)) was performed on incubated mixtures of BSA and D-ribose, with or without the identified anti-glycation agents. The mixtures contained BSA (0.075 mM protein concentration or 4.53 mM of Lys residue concentration) and D-ribose (50 mM). […] The fluorescamine assay determines the number of free lysine residues of BSA. In this experiment, the final volume of the incubation mixtures was 10 mL and the incubation time was 5 days at 37° C. Prior to the fluorescamine assay, the proteins were isolated by reverse phase HPLC. The protein content was determined using the Bio-Rad protein determination reagent (Bradford method). The fluorescamine assay was done in triplicate.

[3] = tested on: bovine serum albumin (BSA); assay: Maillard fluorescence-based assay of AGEs formation, IC50 determination (BSA + D-ribose); details: inhibition of Maillard fluorescence development; 0.075 mM BSA, 50 mM D-ribose, 37° C., 5 days
[4] = tested on: bovine serum albumin (BSA)

SMILES	Peak area as % of total area of all glycoforms, 14,569 [1] [%]	Peak area as % of total area of all glycoforms, 14,551 [1] [%]	Peak area as % of total area of all glycoforms, 14,533 [1] [%]	Peak area as % of total area of all glycoforms, 14,515 [1] [%]	Peak area as % of total area of all glycoforms, 14,419 [1] [%]	Peak area as % of total area of all glycoforms, 14,401 [1] [%]	Peak area as % of total area of all glycoforms, 14,437 [1] [%]	Peak area as % of total area of all glycoforms, 14,496 [1] [%]	Peak area as % of total area of all glycoforms, 14,364 [1] [%]	Peak area as % of total area of all glycoforms, 14,305 [1] [%]	Unreacted amino group [2] [%]	IC50 [3] [µM]	IC50 [4] [µM]	maximum percentage of the inhibition [4] [%)]	effect on protection of amino groups of BSA ([2]; in words)
CNCC(=O)c1ccc(O)c(O)c1 [Adrenalone]	3.3	1.3	1.3	1.5	2.5	1.7	17.2	2.2	4.8	59.3	45	57			
O=c1cc(-c2ccccc2O)oc2cc(O)cc(O)c12 [5,7,2′-Trihydroxyflavone]	4.3	4.8	2.3	1.7	9.3	1.6	19.8	0.0	5.8	46.7	53	220			
Cc1cc(N)c2ccccc2c1O [Vitamin K5]	1.6	1.3	1.6	0.0	3.3	0.0	12.2	0.0	4.9	75.1	51	90			
CCCOC(=O)c1cc(O)c(O)c(O)c1 [Propyl gallate]	0.0	0.0	0.0	0.0	1.3	0.0	7.7	0.0	4.4	86.6	28		330		
O=c1c(O)c(-c2ccccc2)oc2cc(O)cc(O)c12 [Galangin]	4.3	5.2	2.2	1.0	10.2	0.8	20.2	0.0	4.1	48.0	64		110		
O=C1OC(CN2CCOCC2)CN1/N=C/c1ccc([N+](=O)[O-])o1 (centres unmarked) [Furaltadone]	4.5	2.7	1.1	0.0	6.3	0.0	23.9	0.0	0.9	60.6	60		41	30	
O=Cc1ccc(O)c(O)c1 [3,4-Dihydroxybenzaldehyde]	1.8	3.0	0.0	1.2	3.1	0.0	10.9	1.5	0.0	78.6	32		120		seem to accelerate the modification of the amino groups
O=c1cc(-c2ccccc2)oc2cc(O)c(O)c(O)c12 [Baicalein]	0.0	0.0	0.0	0.0	0.0	0.0	5.9	0.0	0.0	94.1	48		49		
O=c1oc2c(O)c(O)cc3c(=O)oc4c(O)c(O)cc1c4c23 [Ellagic acid]	0.0	0.0	0.0	0.0	1.2	0.0	14.6	0.0	1.1	83.1	52		40		
C[C@](N)(Cc1ccc(O)c(O)c1)C(=O)O [L-α-Methyl-DOPA]	2.7	0.5	0.1	0.5	1.5	2.1	18.3	1.0	3.5	69.4	47		73		
NCCc1ccc(O)c(O)c1 [Dopamine]	1.2	0.0	0.0	0.0	1.6	1.3	13.4	0.0	3.3	79.2	60		62		
